What all share (test): relative viability (nuclei count vs DMSO), 5 days (fraction); higher = more cells survive
Compound in test [1]: COC1=C(C=C(C=C1)C2=CC3=NC=CN3C(=N2)NC4=C(C=CC=N4)C(=O)N)OC [BAY61-3606] + Cc1nc(Nc2ncc(C(=O)Nc3c(C)cccc3Cl)s2)cc(N2CCN(CCO)CC2)n1 [Dasatinib] (partner 0.075 µM)
In short, it runs like this: (§1)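 Cells from lung cancer lines were seeded into 1536-well plates and, one day later, dosed by pin tool. Treatments were either a single drug or a fixed dose of an anchor drug with five library-drug doses (not always all listed) in √10 steps. After 5 days, nuclei were stained in a one-step fixation (final 0.05% Triton X-100, 1% formaldehyde, 1 ug/ml Hoechst) and counted on 4× images, and relative viability is the treated-to-vehicle nuclei ratio, as the median of duplicate plates.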

Compound in test [2]: COc1cccc2c1C(=O)c1c(O)c3c(c(O)c1C2=O)C[C@@](O)(C(=O)CO)C[C@@H]3O[C@H]1C[C@H](N)[C@H](O)[C@H](C)O1 [Doxorubicin] + CC(C)C[C@H](NC(=O)[C@H](Cc1ccccc1)NC(=O)c1cnccn1)B(O)O [Bortezomib] (partner 0.002 µM)
In short, it runs like this: as §1

Compound in test [3]: COc1cccc2c1C(=O)c1c(O)c3c(c(O)c1C2=O)C[C@@](O)(C(=O)CO)C[C@@H]3O[C@H]1C[C@H](N)[C@H](O)[C@H](C)O1 [Doxorubicin] + Cc1cc(Nc2cc(N3CCN(C)CC3)nc(Sc3ccc(NC(=O)C4CC4)cc3)n2)n[nH]1 [Tozasertib] (partner 0.1 µM)
The essentials: as §1

Compound in test [4]: COc1cccc2c1C(=O)c1c(O)c3c(c(O)c1C2=O)C[C@@](O)(C(=O)CO)C[C@@H]3O[C@H]1C[C@H](N)[C@H](O)[C@H](C)O1 [Doxorubicin] + Nc1nc2[nH]cc(CCc3ccc(C(=O)N[C@@H](CCC(=O)O)C(=O)O)cc3)c2c(=O)[nH]1 [Pemetrexed] (partner 0.2 µM)
In short, it runs like this:
as §1

Consider 201T, for which the relative viability in test [1] (first compound 0.02 µM) was 0.545; in test [1] (first compound 0.06325 µM), 0.509; in test [1] (first compound 0.2 µM) it was 0.546; in test [1] (first compound 0.6325 µM) it was 0.548; in test [1] (first compound 2 µM) it was 0.571; in test [2] (first compound 0.001 µM) it was 1.06. The relative viability in test [2] (first compound 0.003162 µM) worked out at 0.991; in test [2] (first compound 0.01 µM), 1.14; in test [2] (first compound 0.03162 µM) it was 1.15; in test [2] (first compound 0.1 µM) it was 1.05; in test [3] (first compound 0.001 µM), 0.924; in test [3] (first compound 0.003162 µM) it was 0.955. Further, the relative viability in test [3] (first compound 0.01 µM) amounted to 0.949; in test [3] (first compound 0.03162 µM), 0.927; in test [3] (first compound 0.1 µM), 0.924; in test [4] (first compound 0.001 µM) it was 0.344; in test [4] (first compound 0.003162 µM), 0.325; in test [4] (first compound 0.01 µM) it was 0.352. In addition, the relative viability was 0.338 in test [4] (first compound 0.03162 µM) and 0.351 in test [4] (first compound 0.1 µM).

As to A-427, the relative viability in test [1] (first compound 0.02 µM) is 0.722; in test [1] (first compound 0.06325 µM), 0.681; in test [1] (first compound 0.2 µM), 0.673; in test [1] (first compound 0.6325 µM) it was 0.765; in test [1] (first compound 2 µM) it was 0.647; in test [2] (first compound 0.001 µM), 1.03. Further, the relative viability in test [2] (first compound 0.003162 µM) was 1.06; in test [2] (first compound 0.01 µM), 0.966; in test [2] (first compound 0.03162 µM) it was 0.942; in test [2] (first compound 0.1 µM), 0.991; in test [3] (first compound 0.001 µM) it was 0.241; in test [3] (first compound 0.003162 µM), 0.215. Moreover, the relative viability in test [3] (first compound 0.01 µM) was 0.183; in test [3] (first compound 0.03162 µM) it was 0.238; in test [3] (first compound 0.1 µM), 0.213; in test [4] (first compound 0.001 µM), 1.08; in test [4] (first compound 0.003162 µM) it was 1.06; in test [4] (first compound 0.01 µM), 0.929. Moreover, the relative viability in test [4] (first compound 0.03162 µM) came to 0.746; in test [4] (first compound 0.1 µM), 0.429.

Take ABC-1: the relative viability came out at 0.658 in test [1] (first compound 0.02 µM); 0.653 in test [1] (first compound 0.06325 µM); 0.557 in test [1] (first compound 0.2 µM); 0.553 in test [1] (first compound 0.6325 µM); 0.476 in test [1] (first compound 2 µM); 0.304 in test [2] (first compound 0.001 µM). Also, the relative viability was 0.324 in test [2] (first compound 0.003162 µM); 0.364 in test [2] (first compound 0.01 µM); 0.273 in test [2] (first compound 0.03162 µM); 0.251 in test [2] (first compound 0.1 µM); 0.223 in test [3] (first compound 0.001 µM); 0.207 in test [3] (first compound 0.003162 µM). For the same cell line, the results for the relative viability in test [3] (first compound 0.01 µM), in test [3] (first compound 0.03162 µM) and in test [3] (first compound 0.1 µM) were 0.153, 0.184 and 0.181, respectively.

Consider BEN, for which the relative viability was 0.342 in test [1] (first compound 0.02 µM); 0.309 in test [1] (first compound 0.06325 µM); 0.296 in test [1] (first compound 0.2 µM); 0.318 in test [1] (first compound 0.6325 µM); 0.321 in test [1] (first compound 2 µM); 1.01 in test [2] (first compound 0.001 µM). For the same cell line, the relative viability in test [2] (first compound 0.003162 µM) is 1.05; in test [2] (first compound 0.01 µM), 0.821; in test [2] (first compound 0.03162 µM) it was 0.632; in test [2] (first compound 0.1 µM) it was 0.74; in test [3] (first compound 0.001 µM) it was 0.587; in test [3] (first compound 0.003162 µM), 0.564. Also, the relative viability in test [3] (first compound 0.01 µM) was determined as 0.576; in test [3] (first compound 0.03162 µM), 0.469; in test [3] (first compound 0.1 µM) it was 0.54; in test [4] (first compound 0.001 µM) it was 0.899; in test [4] (first compound 0.003162 µM), 0.78; in test [4] (first compound 0.01 µM), 0.926. The results for the relative viability in test [4] (first compound 0.03162 µM) and in test [4] (first compound 0.1 µM) were 0.631 and 0.701, respectively.

CAL-12T: the relative viability in test [1] (first compound 0.02 µM) came out at 0.495; in test [1] (first compound 0.06325 µM) it was 0.383; in test [1] (first compound 0.2 µM), 0.404; in test [1] (first compound 0.6325 µM) it was 0.479; in test [1] (first compound 2 µM), 0.131; in test [2] (first compound 0.001 µM), 1.01. Further, the relative viability in test [2] (first compound 0.003162 µM) came out at 1.06; in test [2] (first compound 0.01 µM), 0.853; in test [2] (first compound 0.03162 µM), 0.567; in test [2] (first compound 0.1 µM), 0.307; in test [3] (first compound 0.001 µM) it was 0.339; in test [3] (first compound 0.003162 µM) it was 0.283. The relative viability in test [3] (first compound 0.01 µM) turned out to be 0.257; in test [3] (first compound 0.03162 µM), 0.207; in test [3] (first compound 0.1 µM), 0.136; in test [4] (first compound 0.001 µM) it was 1.1; in test [4] (first compound 0.003162 µM), 1.22; in test [4] (first compound 0.01 µM) it was 1.03. Moreover, the relative viability is 0.38 in test [4] (first compound 0.03162 µM) and 0.248 in test [4] (first compound 0.1 µM).

In the case of COR-L23, the relative viability in test [1] (first compound 0.02 µM) was determined as 0.609; in test [1] (first compound 0.06325 µM) it was 0.548; in test [1] (first compound 0.2 µM), 0.504; in test [1] (first compound 0.6325 µM), 0.467; in test [1] (first compound 2 µM), 0.316; in test [2] (first compound 0.001 µM), 1.04. Further, the relative viability was 0.996 in test [2] (first compound 0.003162 µM); 0.872 in test [2] (first compound 0.01 µM); 0.447 in test [2] (first compound 0.03162 µM); 0.156 in test [2] (first compound 0.1 µM); 0.227 in test [3] (first compound 0.001 µM); 0.186 in test [3] (first compound 0.003162 µM). The relative viability is 0.201 in test [3] (first compound 0.01 µM); 0.123 in test [3] (first compound 0.03162 µM); 0.122 in test [3] (first compound 0.1 µM); 0.202 in test [4] (first compound 0.001 µM); 0.212 in test [4] (first compound 0.003162 µM); 0.203 in test [4] (first compound 0.01 µM). The relative viability in test [4] (first compound 0.03162 µM) is 0.2; in test [4] (first compound 0.1 µM), 0.186.

COR-L 105: the relative viability in test [1] (first compound 0.02 µM) was found to be 0.325; in test [1] (first compound 0.06325 µM) it was 0.332; in test [1] (first compound 0.2 µM), 0.339; in test [1] (first compound 0.6325 µM), 0.333; in test [1] (first compound 2 µM) it was 0.203; in test [2] (first compound 0.001 µM), 0.787. Besides, the relative viability is 0.71 in test [2] (first compound 0.003162 µM); 0.74 in test [2] (first compound 0.01 µM); 0.41 in test [2] (first compound 0.03162 µM); 0.256 in test [2] (first compound 0.1 µM); 0.424 in test [3] (first compound 0.001 µM); 0.368 in test [3] (first compound 0.003162 µM). The relative viability stood at 0.443 in test [3] (first compound 0.01 µM); 0.334 in test [3] (first compound 0.03162 µM); 0.344 in test [3] (first compound 0.1 µM); 0.87 in test [4] (first compound 0.001 µM); 1.2 in test [4] (first compound 0.003162 µM); 1.05 in test [4] (first compound 0.01 µM). For the same cell line, the relative viability was 0.808 in test [4] (first compound 0.03162 µM) and 0.618 in test [4] (first compound 0.1 µM).

Calu-6: the relative viability in test [2] (first compound 0.001 µM) was determined as 0.897; in test [2] (first compound 0.003162 µM), 1.01; in test [2] (first compound 0.01 µM) it was 0.804; in test [2] (first compound 0.03162 µM), 0.408; in test [2] (first compound 0.1 µM), 0.248.

The values above are taken from the supplement of paper PMC10307832.
